Assay results as given in PMC9030254, “Target Hopping from Protein Kinases to PXR: Identification of Small-Molecule Protein Kinase Inhibitors as Selective Modulators of Pregnane X Receptor from TüKIC Library” (Cells, 2022).

Key:
Experiment in all cases: Kinase profiling
Assay type in all cases: biochemical
PAK2 = biological target: T1, PAK2 (Homo sapiens, UniProt Q13177)
T1 construct: purchased ProQinase (Freiburg, Germany)
Protocol: (§1) The analysis was performed by ProQinase (Freiburg, Germany).

PKCalpha = biological target: T2, PKCalpha (Homo sapiens, UniProt P17252)
T2 construct: purchased ProQinase (Freiburg, Germany)
Protocol: as §1

GRK6 = biological target: T3, GRK6 (Homo sapiens, UniProt P43250)
T3 construct: purchased ProQinase (Freiburg, Germany)
Protocol: as §1

PRKG2 = biological target: T4, PRKG2 (Homo sapiens, UniProt Q13237)
T4 construct: purchased ProQinase (Freiburg, Germany)
T4 sequence (Q13237 1-762): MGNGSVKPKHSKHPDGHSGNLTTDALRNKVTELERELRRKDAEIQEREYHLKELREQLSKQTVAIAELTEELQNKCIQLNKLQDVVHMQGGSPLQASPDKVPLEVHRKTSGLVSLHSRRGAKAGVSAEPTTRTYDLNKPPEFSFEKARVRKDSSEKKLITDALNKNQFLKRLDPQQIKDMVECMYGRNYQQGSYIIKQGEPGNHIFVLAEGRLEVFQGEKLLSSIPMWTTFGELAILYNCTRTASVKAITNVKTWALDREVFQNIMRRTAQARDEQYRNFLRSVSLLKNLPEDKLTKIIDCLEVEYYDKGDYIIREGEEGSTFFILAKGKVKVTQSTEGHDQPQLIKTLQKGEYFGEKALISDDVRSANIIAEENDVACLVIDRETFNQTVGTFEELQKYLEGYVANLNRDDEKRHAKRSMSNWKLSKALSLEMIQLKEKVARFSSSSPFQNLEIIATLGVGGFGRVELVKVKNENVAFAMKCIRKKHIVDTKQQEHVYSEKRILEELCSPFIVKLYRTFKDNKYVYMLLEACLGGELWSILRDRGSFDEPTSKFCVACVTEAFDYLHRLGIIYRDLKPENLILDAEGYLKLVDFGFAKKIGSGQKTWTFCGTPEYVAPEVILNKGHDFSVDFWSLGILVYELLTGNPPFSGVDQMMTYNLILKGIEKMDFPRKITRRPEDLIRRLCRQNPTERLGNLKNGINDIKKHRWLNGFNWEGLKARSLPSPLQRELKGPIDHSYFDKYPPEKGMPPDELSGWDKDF
Protocol: as §1

CDK6/CycD2 = biological target: T5, CDK6/CycD2 (Homo sapiens, UniProt Q00534)
T5 construct: purchased ProQinase (Freiburg, Germany)
Protocol: as §1

PRKX = biological target: T6, PRKX (Homo sapiens, UniProt P51817)
T6 construct: purchased ProQinase (Freiburg, Germany)
T6 sequence (P51817 1-358): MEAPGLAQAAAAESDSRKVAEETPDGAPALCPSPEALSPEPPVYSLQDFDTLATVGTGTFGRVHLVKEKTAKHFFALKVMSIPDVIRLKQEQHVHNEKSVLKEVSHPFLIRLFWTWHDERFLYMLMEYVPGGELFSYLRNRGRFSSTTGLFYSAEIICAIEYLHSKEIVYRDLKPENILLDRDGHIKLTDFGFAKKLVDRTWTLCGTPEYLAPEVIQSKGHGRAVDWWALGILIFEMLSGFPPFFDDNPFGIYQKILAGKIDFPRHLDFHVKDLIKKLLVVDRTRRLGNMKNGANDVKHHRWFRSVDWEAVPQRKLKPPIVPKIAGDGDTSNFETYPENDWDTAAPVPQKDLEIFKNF
Protocol: as §1

FYN = biological target: T7, FYN (Homo sapiens, UniProt P06241)
T7 construct: purchased ProQinase (Freiburg, Germany)
Protocol: as §1

CDK2/CycA2 = biological target: T8, CDK2/CycA2 (Homo sapiens, UniProt P24941)
T8 construct: purchased ProQinase (Freiburg, Germany)
Protocol: as §1

JNK3 = biological target: T9, JNK3 (Homo sapiens, UniProt P53779)
T9 construct: purchased ProQinase (Freiburg, Germany)
Protocol: as §1

TAOK3 = biological target: T10, TAOK3 (Homo sapiens, UniProt Q9H2K8)
T10 construct: purchased ProQinase (Freiburg, Germany)
T10 sequence (Q9H2K8 1-898): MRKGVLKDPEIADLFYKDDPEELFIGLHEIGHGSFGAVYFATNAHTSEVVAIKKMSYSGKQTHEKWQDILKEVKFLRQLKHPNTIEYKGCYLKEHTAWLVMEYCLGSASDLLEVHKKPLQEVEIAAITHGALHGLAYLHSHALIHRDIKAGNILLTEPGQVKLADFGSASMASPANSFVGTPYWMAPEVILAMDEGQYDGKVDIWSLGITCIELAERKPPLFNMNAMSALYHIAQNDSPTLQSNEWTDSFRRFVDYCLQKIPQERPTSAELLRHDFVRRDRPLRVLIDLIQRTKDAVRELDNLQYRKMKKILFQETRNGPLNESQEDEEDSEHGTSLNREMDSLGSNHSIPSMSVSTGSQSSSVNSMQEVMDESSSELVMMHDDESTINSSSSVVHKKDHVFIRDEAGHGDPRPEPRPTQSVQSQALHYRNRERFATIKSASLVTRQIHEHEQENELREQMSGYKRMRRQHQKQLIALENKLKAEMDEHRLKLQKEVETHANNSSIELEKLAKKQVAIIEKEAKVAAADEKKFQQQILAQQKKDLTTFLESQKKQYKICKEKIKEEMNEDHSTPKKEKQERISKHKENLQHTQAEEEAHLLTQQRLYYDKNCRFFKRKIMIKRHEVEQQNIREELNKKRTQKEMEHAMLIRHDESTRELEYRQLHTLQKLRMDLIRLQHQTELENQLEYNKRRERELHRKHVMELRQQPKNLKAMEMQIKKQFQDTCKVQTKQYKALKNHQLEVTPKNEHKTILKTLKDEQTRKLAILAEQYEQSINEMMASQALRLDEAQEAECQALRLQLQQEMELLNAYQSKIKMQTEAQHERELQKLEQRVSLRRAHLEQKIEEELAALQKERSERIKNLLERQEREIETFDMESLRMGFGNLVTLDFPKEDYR
Protocol: as §1

MEK1 = biological target: T11, MEK1 (Homo sapiens, UniProt Q02750)
T11 construct: purchased ProQinase (Freiburg, Germany)
Protocol: as §1

MARK3 = biological target: T12, MARK3 (Homo sapiens, UniProt P27448)
T12 construct: purchased ProQinase (Freiburg, Germany)
Protocol: as §1

TRKC = biological target: T13, TRKC (Homo sapiens, UniProt Q16288)
T13 construct: purchased ProQinase (Freiburg, Germany)
Protocol: as §1

CDK20/CycH = biological target: T14, CDK20/CycH (Homo sapiens, UniProt Q8IZL9)
T14 construct: purchased ProQinase (Freiburg, Germany)
Protocol: as §1

T12 sequence (P27448 whole entry): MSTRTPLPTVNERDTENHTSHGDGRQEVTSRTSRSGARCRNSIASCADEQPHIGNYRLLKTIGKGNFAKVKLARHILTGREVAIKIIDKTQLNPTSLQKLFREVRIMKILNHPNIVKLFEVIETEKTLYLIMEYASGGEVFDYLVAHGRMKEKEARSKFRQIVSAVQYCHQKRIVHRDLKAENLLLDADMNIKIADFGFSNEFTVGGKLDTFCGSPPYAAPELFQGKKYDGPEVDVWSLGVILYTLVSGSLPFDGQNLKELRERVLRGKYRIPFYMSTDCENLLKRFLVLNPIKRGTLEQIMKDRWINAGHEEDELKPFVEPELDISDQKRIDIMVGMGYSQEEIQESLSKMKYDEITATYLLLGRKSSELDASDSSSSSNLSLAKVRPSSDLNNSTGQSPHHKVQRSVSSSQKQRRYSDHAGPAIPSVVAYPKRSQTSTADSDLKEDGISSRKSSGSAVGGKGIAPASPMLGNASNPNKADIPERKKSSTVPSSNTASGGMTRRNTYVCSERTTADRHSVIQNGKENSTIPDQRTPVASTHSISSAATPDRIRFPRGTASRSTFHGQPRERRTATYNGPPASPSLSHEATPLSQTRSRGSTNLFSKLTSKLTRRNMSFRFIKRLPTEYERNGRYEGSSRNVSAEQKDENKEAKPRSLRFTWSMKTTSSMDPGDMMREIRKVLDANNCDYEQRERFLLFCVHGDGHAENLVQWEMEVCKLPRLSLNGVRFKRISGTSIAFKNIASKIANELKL
T13 sequence (Q16288 32-839): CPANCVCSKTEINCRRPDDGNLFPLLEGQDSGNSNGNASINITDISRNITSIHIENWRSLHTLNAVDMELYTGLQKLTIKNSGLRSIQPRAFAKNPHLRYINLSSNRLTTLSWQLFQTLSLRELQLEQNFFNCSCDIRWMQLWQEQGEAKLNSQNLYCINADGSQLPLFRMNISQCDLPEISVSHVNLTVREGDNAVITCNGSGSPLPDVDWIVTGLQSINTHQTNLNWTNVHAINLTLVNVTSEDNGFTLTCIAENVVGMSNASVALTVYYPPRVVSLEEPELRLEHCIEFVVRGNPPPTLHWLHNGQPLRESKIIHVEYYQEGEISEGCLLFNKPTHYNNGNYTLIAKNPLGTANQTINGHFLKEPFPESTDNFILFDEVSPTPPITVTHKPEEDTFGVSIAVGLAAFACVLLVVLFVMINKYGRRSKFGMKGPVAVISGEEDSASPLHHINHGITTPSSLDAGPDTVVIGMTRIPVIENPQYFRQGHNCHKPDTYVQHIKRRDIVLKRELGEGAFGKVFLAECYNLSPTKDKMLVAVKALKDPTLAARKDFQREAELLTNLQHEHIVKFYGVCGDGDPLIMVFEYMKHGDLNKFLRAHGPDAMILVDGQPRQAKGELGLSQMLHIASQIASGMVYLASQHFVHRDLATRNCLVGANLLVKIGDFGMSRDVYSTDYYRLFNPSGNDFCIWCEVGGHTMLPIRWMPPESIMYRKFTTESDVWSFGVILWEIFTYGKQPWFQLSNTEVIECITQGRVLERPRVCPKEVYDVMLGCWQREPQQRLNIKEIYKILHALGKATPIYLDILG
T1 sequence (Q13177 whole entry): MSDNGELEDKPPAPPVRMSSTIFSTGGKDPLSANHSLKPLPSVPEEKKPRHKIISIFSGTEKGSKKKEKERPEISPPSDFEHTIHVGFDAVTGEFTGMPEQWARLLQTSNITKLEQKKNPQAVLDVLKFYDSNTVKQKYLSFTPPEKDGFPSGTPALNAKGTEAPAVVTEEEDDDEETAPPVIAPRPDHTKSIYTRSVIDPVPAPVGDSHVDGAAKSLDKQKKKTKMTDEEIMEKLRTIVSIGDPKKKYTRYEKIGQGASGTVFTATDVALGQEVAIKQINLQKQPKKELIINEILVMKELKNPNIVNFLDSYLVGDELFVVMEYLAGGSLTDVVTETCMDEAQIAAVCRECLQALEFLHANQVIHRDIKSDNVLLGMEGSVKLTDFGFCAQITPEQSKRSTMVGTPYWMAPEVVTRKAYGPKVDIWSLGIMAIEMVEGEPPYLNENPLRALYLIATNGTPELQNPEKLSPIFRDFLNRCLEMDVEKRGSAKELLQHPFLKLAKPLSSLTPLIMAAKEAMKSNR
T9 sequence (P53779 whole entry): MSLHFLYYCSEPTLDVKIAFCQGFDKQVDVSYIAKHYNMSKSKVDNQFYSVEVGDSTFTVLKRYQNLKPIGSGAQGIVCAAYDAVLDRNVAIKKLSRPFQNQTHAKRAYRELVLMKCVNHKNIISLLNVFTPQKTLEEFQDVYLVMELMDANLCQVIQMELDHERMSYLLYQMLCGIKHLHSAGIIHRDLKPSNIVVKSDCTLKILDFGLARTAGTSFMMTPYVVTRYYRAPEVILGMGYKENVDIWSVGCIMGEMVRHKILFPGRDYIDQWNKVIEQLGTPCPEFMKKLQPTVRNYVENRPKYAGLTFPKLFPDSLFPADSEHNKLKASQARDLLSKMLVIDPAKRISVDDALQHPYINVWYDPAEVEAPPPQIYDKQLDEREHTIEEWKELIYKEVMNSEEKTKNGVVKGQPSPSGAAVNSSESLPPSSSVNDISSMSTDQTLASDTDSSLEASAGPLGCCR
T3 sequence (P43250 whole entry): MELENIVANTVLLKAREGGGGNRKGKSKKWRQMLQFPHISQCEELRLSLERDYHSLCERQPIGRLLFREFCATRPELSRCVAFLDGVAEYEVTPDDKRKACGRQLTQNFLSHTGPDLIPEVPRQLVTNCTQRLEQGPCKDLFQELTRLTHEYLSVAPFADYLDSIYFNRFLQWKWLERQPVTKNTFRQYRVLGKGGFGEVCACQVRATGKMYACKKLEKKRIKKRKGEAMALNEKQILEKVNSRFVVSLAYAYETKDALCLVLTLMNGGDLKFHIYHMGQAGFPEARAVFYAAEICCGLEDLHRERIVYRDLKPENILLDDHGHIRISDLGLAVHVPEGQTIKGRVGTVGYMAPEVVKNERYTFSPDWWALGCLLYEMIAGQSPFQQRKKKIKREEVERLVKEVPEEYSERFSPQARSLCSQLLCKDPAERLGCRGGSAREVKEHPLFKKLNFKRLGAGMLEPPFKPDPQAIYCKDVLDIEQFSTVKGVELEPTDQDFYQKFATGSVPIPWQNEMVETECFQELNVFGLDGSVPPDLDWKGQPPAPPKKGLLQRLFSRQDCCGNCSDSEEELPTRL
T11 sequence (Q02750 whole entry): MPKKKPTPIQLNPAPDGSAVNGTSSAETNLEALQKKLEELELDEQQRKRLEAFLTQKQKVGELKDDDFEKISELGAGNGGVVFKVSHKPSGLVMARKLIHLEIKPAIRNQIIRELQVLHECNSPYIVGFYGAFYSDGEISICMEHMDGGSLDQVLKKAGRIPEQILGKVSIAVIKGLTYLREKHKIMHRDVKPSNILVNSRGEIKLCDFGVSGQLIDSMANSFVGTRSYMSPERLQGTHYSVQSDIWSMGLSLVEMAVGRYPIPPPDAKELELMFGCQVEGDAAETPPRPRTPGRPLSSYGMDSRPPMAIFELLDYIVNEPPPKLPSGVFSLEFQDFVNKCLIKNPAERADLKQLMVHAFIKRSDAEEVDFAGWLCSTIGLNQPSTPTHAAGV
T7 sequence (P06241 whole entry): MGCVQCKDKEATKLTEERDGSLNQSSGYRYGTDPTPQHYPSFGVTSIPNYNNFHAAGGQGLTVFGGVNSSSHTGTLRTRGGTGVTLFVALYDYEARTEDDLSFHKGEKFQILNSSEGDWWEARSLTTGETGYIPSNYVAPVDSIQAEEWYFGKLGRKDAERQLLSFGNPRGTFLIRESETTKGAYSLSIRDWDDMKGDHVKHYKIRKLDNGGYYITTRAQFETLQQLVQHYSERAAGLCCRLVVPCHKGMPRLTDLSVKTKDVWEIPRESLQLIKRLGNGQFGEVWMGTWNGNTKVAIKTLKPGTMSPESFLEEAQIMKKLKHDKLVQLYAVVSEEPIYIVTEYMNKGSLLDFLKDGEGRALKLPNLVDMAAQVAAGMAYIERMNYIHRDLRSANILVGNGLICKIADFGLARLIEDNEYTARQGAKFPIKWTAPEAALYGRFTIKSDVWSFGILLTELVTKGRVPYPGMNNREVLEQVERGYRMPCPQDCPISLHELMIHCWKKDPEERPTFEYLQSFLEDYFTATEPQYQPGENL
T14 sequence (Q8IZL9 whole entry): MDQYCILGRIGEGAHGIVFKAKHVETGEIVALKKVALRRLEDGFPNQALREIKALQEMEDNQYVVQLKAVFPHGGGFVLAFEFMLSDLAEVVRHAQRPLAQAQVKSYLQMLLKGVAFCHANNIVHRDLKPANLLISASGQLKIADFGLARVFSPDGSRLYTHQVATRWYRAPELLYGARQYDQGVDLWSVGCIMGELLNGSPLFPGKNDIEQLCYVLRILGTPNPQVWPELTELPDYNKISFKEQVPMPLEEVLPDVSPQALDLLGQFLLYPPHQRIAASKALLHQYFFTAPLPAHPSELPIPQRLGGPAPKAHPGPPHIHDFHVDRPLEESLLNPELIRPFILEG
T14 sequence (P51946 whole entry partner): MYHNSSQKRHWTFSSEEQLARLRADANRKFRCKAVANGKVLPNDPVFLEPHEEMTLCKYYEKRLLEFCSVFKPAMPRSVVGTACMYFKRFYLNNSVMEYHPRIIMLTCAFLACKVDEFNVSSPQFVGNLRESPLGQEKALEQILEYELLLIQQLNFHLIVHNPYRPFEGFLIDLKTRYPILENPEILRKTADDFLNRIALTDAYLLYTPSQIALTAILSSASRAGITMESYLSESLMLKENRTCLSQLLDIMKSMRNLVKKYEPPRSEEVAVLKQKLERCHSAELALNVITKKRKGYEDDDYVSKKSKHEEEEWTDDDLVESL

Question: With O=C(Cc1ccccc1)Nc1ccc(F)c(Nc2ccc3c(c2)CCCCC3=O)c1 [Compound 100] as the molecule, how does the Residual activity (PAK2; 1.0E-05 M) read?
Answer: 68 % of control

Question: And the Residual activity (PAK2; 1.0E-06 M)?
Answer: 101 % of control

Question: What about the Residual activity (PKCalpha; 1.0E-05 M) of the same molecule?
Answer: 82 % of control

Question: And the Residual activity (PKCalpha; 1.0E-06 M)?
Answer: 95 % of control

Question: What about the Residual activity (GRK6; 1.0E-05 M) of the same molecule?
Answer: 114 % of control

Question: What about the Residual activity (GRK6; 1.0E-06 M) of the same molecule?
Answer: 117 % of control

Question: What about the Residual activity (PRKG2; 1.0E-05 M) of the same molecule?
Answer: 83 % of control

Question: What about the Residual activity (PRKG2; 1.0E-06 M) of the same molecule?
Answer: 94 % of control

Question: And the Residual activity (CDK6/CycD2; 1.0E-05 M)?
Answer: 97 % of control

Question: What about the Residual activity (CDK6/CycD2; 1.0E-06 M) of the same molecule?
Answer: 97 % of control

Question: What about the Residual activity (PRKX; 1.0E-05 M) of the same molecule?
Answer: 88 % of control

Question: What about the Residual activity (PRKX; 1.0E-06 M) of the same molecule?
Answer: 102 % of control

Question: What about the Residual activity (FYN; 1.0E-05 M) of the same molecule?
Answer: 55 % of control

Question: What about the Residual activity (FYN; 1.0E-06 M) of the same molecule?
Answer: 90 % of control

Question: What about the Residual activity (CDK2/CycA2; 1.0E-05 M) of the same molecule?
Answer: 106 % of control

Question: What about the Residual activity (CDK2/CycA2; 1.0E-06 M) of the same molecule?
Answer: 87 % of control

Question: And the Residual activity (JNK3; 1.0E-05 M)?
Answer: 119 % of control

Question: And the Residual activity (JNK3; 1.0E-06 M)?
Answer: 96 % of control

Question: And the Residual activity (TAOK3; 1.0E-05 M)?
Answer: 98 % of control

Question: What about the Residual activity (TAOK3; 1.0E-06 M) of the same molecule?
Answer: 105 % of control

Question: And the Residual activity (MEK1; 1.0E-05 M)?
Answer: 114 % of control

Question: And the Residual activity (MEK1; 1.0E-06 M)?
Answer: 112 % of control

Question: And the Residual activity (MARK3; 1.0E-05 M)?
Answer: 103 % of control

Question: What about the Residual activity (MARK3; 1.0E-06 M) of the same molecule?
Answer: 106 % of control

Question: And the Residual activity (TRKC; 1.0E-05 M)?
Answer: 89 % of control

Question: And the Residual activity (TRKC; 1.0E-06 M)?
Answer: 109 % of control

Question: What about the Residual activity (CDK20/CycH; 1.0E-05 M) of the same molecule?
Answer: 98 % of control

Question: What about the Residual activity (CDK20/CycH; 1.0E-06 M) of the same molecule?
Answer: 103 % of control

Question: How did the Residual activity (PAK2; 1.0E-05 M) turn out when O=C(Nc1ccc(F)c(Nc2ccc3c(c2)CCCCC3=O)c1)c1cccc(F)c1 [Compound 109] was run?
Answer: 69 % of control

Question: What about the Residual activity (PAK2; 1.0E-06 M) of the same molecule?
Answer: 91 % of control

Question: What about the Residual activity (PKCalpha; 1.0E-05 M) of the same molecule?
Answer: 73 % of control

Question: And the Residual activity (PKCalpha; 1.0E-06 M)?
Answer: 92 % of control

Question: What about the Residual activity (GRK6; 1.0E-05 M) of the same molecule?
Answer: 121 % of control

Question: What about the Residual activity (GRK6; 1.0E-06 M) of the same molecule?
Answer: 113 % of control

Question: And the Residual activity (PRKG2; 1.0E-05 M)?
Answer: 84 % of control

Question: And the Residual activity (PRKG2; 1.0E-06 M)?
Answer: 88 % of control

Question: And the Residual activity (CDK6/CycD2; 1.0E-05 M)?
Answer: 94 % of control

Question: What about the Residual activity (CDK6/CycD2; 1.0E-06 M) of the same molecule?
Answer: 105 % of control

Question: What about the Residual activity (PRKX; 1.0E-05 M) of the same molecule?
Answer: 85 % of control

Question: What about the Residual activity (PRKX; 1.0E-06 M) of the same molecule?
Answer: 95 % of control

Question: And the Residual activity (FYN; 1.0E-05 M)?
Answer: 83 % of control

Question: And the Residual activity (FYN; 1.0E-06 M)?
Answer: 104 % of control

Question: And the Residual activity (CDK2/CycA2; 1.0E-05 M)?
Answer: 94 % of control

Question: What about the Residual activity (CDK2/CycA2; 1.0E-06 M) of the same molecule?
Answer: 83 % of control

Question: What about the Residual activity (JNK3; 1.0E-05 M) of the same molecule?
Answer: 92 % of control

Question: And the Residual activity (JNK3; 1.0E-06 M)?
Answer: 83 % of control

Question: And the Residual activity (TAOK3; 1.0E-05 M)?
Answer: 91 % of control

Question: And the Residual activity (TAOK3; 1.0E-06 M)?
Answer: 99 % of control

Question: What about the Residual activity (MEK1; 1.0E-05 M) of the same molecule?
Answer: 109 % of control

Question: What about the Residual activity (MEK1; 1.0E-06 M) of the same molecule?
Answer: 109 % of control

Question: And the Residual activity (MARK3; 1.0E-05 M)?
Answer: 105 % of control

Question: And the Residual activity (MARK3; 1.0E-06 M)?
Answer: 102 % of control

Question: What about the Residual activity (TRKC; 1.0E-05 M) of the same molecule?
Answer: 97 % of control

Question: And the Residual activity (TRKC; 1.0E-06 M)?
Answer: 112 % of control

Question: And the Residual activity (CDK20/CycH; 1.0E-05 M)?
Answer: 121 % of control

Question: And the Residual activity (CDK20/CycH; 1.0E-06 M)?
Answer: 110 % of control
